Experiment [1] has as its system Id-1. Briefly: Id-1 protein expression by quantitative Western analysis, MDA-MB231. The note with it: MDA-MB231 cells, 1.5 μM, two days, FIG. 1E. The experiment is classed as cell-based, human. From the text: Proteins were separated by SDS/PAGE, blotted on Immobilon membrane, and probed with anti-Id-1 and the appropriate secondary antibody. Band intensity values were obtained directly from the blot using AlphaeaseFC software (San Leandro, Calif.) or from film using Image-J (NIH, MD). As a normalization control for loading, blots were stripped and re-probed with mouse alpha-tubulin (Abeam, Cambridge, Mass.).
The ability of CBD to regulate the expression of key genes that control breast cancer cell aggressiveness and invasiveness was determined A potential candidate protein that could mediate the effects of CBD on both phenotypes was the helix-loop-helix protein Id-1. […] The inhibitory effect of CBD on Id-1 expression occurred at concentrations as low as 100 nM. […] The CBD concentrations effective at inhibiting Id-1 expression correlated with those used to inhibit the proliferative and invasive phenotype of MDA-MB231 cells. Furthermore, the time period needed to observe the down-regulation of Id-1 protein in the presence of CBD correlated with the inhibitory effects of CBD on the aggressiveness and invasiveness of MDA-MB231 cells (FIG. 1, panel D).
In order to determine the SAR between cannabinoids and the inhibition of Id-1, MDA-MB231 cells were treated for two days with multiple cannabinoid compounds and Id-1 protein levels were assessed.

The subject of experiment [2] is U251 cells. Briefly: Cell cycle analysis (PI staining, FACS), U251. The experiment is classed as cell-based, human. The note with it: Δ9-THC 1.7 μM and/or CBD 0.4 μM, FIG. 8. Here is the method: U251 cells were grown in Petri dishes (100 mm×15 mm) and received drug treatments for 2 days. On the third day, the cells were harvested and centrifuged at 1200 rpm for 5 minutes. The pellet was washed 1× with PBS+1% BSA, and centrifuged again. The pellet was resuspended in 0.5 ml of 2% paraformaldehyde (diluted with PBS) and left to fix overnight at room temperature. The next day the cells were pelleted and resuspended in 0.5 ml 0.3% Triton in PBS and incubated for 5 minutes at room temperature. The cells were then washed 2 times with PBS+1% BSA. The cells were finally suspended in PBS (0.1% BSA) with 10 ug/ml Propidium Iodide and 100 μg/ml RNAse. The cells were incubated for 30 minutes at room temperature before being stored at 4 C. Cell cycle was measured using a FACS Calibur using Cell Quest Pro and Modfit software.

Experiment [3] has as its system ERK, JNK, and p38 MAPK. The experiment in a line: MAPK activity (pERK, ERK, JNK, p38) by Western analysis, U251. Format: cell-based, human. The protocol:
Cells cultured and treated in 6-well dishes were washed twice with cold PBS. Lysis buffer was added and cells lysed by freezing for 10 min at −70° C. and then thawing. Cell lysate was collected and the concentration was determined using Bradford reagent. Equal amounts of protein were heated to 90° C. in Laemmli sample buffer with β-mercaptoethanol, and loaded onto a precast SDS-PAGE gel (Bio-Rad Laboratories, Hercules, Calif.). Protein was transferred to an Immobilon membrane (Millipore, Billerica, Mass.) overnight at 2-4° C. Blots were then blocked with 5% nonfat dry milk in TBS+Tween for 1 h. Primary antibody from Millipore (rabbit anti-phospho-JNK, rabbit anti-phospho-p38, rabbit anti-phospho-ERK1/2 and rabbit anti-ERK1/2, 1 mcg/mL) in blocking buffer was then added for 1 h. The blots were then rinsed three times 10 min with TBS+Tween. Secondary antibody (Donkey Anti-Rabbit IgG, Jackson Immunoresearch, West Grove, Pa.) was then added. Blots were incubated for 45 min and then washed 4 times for 15 min each. The blots were developed with SuperSignal Femto (Pierce, Rockford, Ill.), and imaged on either a Fluorchem 8900 (Alpha Innotech, San Leandro, Calif.) or ECL Hyperfilm (Amersham-Pharmacia, Piscataway, N.J.). Band intensity values were obtained (after background subtraction) directly from the […] using AlphaeaseFC software (San Leandro, Calif.) or from film using Image-J (NIH, MD). As a normalization control for loading, blots were stripped and re-probed with mouse alpha-tubulin (Abcam, Cambridge, Mass.) and goat anti-mouse IgG (Jackson Immunoresearch) for the primary and secondary antibodies, respectively.
The regulation of ERK, JNK, and p38 MAPK activity plays a role in controlling cell growth and apoptosis. U251 cells were used to determine whether modulation of ERK, JNK, and p38 MAPK activity occurred.

The subject of experiment [4] is MDA-MB231 cells. Briefly: Boyden chamber invasion assay, MDA-MB231. The experiment is classed as cell-based, human. Conditions: for invasion of MDA-MB231 cells: 0.1, 1.0 or 1.5 μM, FIG. 1A. Here is the method:
Invasion is an important step towards breast cancer cell metastasis. Therefore, the effects of several cannabinoids were tested on their ability to modulate the migratory and invasiveness activity of the most aggressive human breast cancer cell line, MDA-MB231, in a reconstituted basement membrane in a Boyden chamber.

For experiment [5], the system named is Id-1. Briefly: Id-1 protein expression by Western blot, U251. The experiment is classed as cell-based, human. Conditions: FIG. 11. For orientation: A western blot detects proteins with antibodies after separation by electrophoresis.
Experiment [6] relates to U251 cells. Briefly: MTT cell proliferation assay, U251 GBM cells. Format: cell-based, human. Conditions: 95% confidence limits. The protocol: (§1) The human GBM cell lines used were SF126, U87 and U251. Cell lines were maintained at 37° C. and 5% CO2.
(§2) Treatment groups were divided into 1) no treatment (control), 2) Δ^9-THC alone, 3) CBD alone, 4) Δ^9-THC and CBD combined. Positive and negative aspects of constituent interaction were determined in this 2×2 design using 2-way analysis of variance as described by (Slinker, 1998). […] Significant differences were also determined using ANOVA where suitable. […] P values <0.05 defined statistical significance.
(In general: Tetrazolium dyes change colour on reduction, which living cells bring about.)

Experiment [7] concerns SF126 cells. The experiment in a line: MTT cell proliferation assay, SF126 GBM cells. Format: cell-based, human. Here is the method: as §1, §2
Experiment [8] deals with U87 cells. The experiment in a line: MTT cell proliferation assay, U87 GBM cells. Conditions: 95% confidence limits. Format: cell-based, human. The protocol: as §1, §2
The test system of experiment [9] is MDA-MB436 cells. Briefly: MTT cell proliferation assay, MDA-MB436. The note with it: read-out: IC50 antiproliferative, MDA-MB436.
Experiment [10] relates to Id-1 promoter. The experiment in a line: Id-1 promoter luciferase reporter assay, MDA-MB231. Format: cell-based, human. The note with it: MDA-MB231 cells, 1.5 μM, 2 or 3 days; FIG. 2B, C. The protocol:
A SacI-BspHI fragment of 2.2 kb corresponding to the 5′ upstream region of human Id-1 gene and driving a luciferase gene in a PGL-3 vector (Promega) has already been described (Id-1-sbsluc). Cells were plated in six well dishes in medium supplemented with 10% FBS and 5 μg/ml insulin. After 24 h, cells were cotransfected with […] of luciferase reporter plasmids and 2 μg of pCMVβ (Clontech) using superfect reagent (Qiagen). pCMVβ contained bacterial β-galactosidase and served to control for variation in transfection efficiency. 3 h after transfection, the cells were rinsed twice with PBS and were cultured in the absence or presence of CBD for 48-72 h. Cell pellets were lysed in 80 μl of reporter lysis buffer (Promega) for 10 min at room temperature. Lysed cells were centrifuged and supernatants harvested. […]
To determine if this effect was due to the inhibition of transcription, a construct was used that contained the Id-1 promoter fused to a luciferase reporter in a PGL-3 basic vector. […] Twenty-four hours after transfection, MDA-MB231-Id-1-luc cells were treated with CBD for 2 or 3 days and luciferase activity was measured (FIG. 2, panel B and panel C). […] These findings correlated to the data obtained when the expression of the Id-1 protein was assessed by Western analysis.

The subject of experiment [11] is MDA-MB231 cells. Briefly: MTT cell proliferation assay, MDA-MB231. Conditions: read-out: IC50 antiproliferative, MDA-MB231.
[12] abbreviates: Homo sapiens, SF-126, 72 h, three day treatment, 95% confidence limits (Table 4), read-out: IC50 antiproliferative, SF126.
[13] abbreviates: treated for three days, value with confidence limits.
The mark [14] stands for this setting: three day treatment, 95% confidence limits (Table 4), read-out: IC50 antiproliferative, SF126.

Each structure is given as a SMILES string. Entries after “also recorded” stand apart in the source; their conditions may differ. Read-outs that look alike come from different tables or passages of the source.

Turning to `C=C(C)[C@@H]1CCC(C)=C[C@H]1c1c(C)cc(O)cc1O` [0-1602], in experiment [1], the “inhibition of Id-1 protein (structure activity relationship)” value (“inhibition of Id-1 protein” for short) was “No inhibition”.

As to `C=C(C)[C@@H]1CCC(C)=C[C@H]1c1c(O)cc(O)cc1CCCCC` [Abn-CBD], the “inhibition of Id-1 protein” value in experiment [1] was “No inhibition”.

Consider `C=C(C)[C@@H]1CCC(C)=C[C@H]1c1c(O)cc(CCCCC)cc1O` [CBD, cannabidiol], for which the cell cycle distribution result in [2] is “increases in the population of cells in G1 and G2/M phase and decreases in cells in S phase”. In addition, the “p-ERK, higher concentrations alone compared with the combination” value in experiment [3] (U251, three days, 2.5 μM Δ9-THC, 2.0 μM CBD, or 1.7 μM/0.4 μM combination, FIG. 6D) was “small inhibition”. For the same compound, the p-ERK result in experiment [3] (U251, Δ9-THC 1.7 μM and/or CBD 0.4 μM, two days, FIG. 4) is reported as “no changes”. Moreover, the “cell invasiveness, control MDA-MB231 (-Id1) cells” value in experiment [4] (1.5 μM, two day treatment, empty pLXSN vector, FIG. 7) is listed as “significant reduction”. In addition, the “invasion of MDA-MB231 cells” value in [4] is reported as “significantly reduced”. Also, in experiment [5], the “Id-1 protein expression in U251 cells” value is reported as “concentration-dependent inhibition”. Besides, the IC50 in experiment [6] (Homo sapiens, U-251, 72 h, three day treatment, read-out: CBD IC50, U251) is 600 nM; in experiment [7] (setting [12]) it was 1200 nM; in [7] (Homo sapiens, SF-126, 72 h, three day treatment, 95% confidence limits, read-out: CBD IC50, SF126) it was 1200 nM; in [7] (Homo sapiens, SF-126, limits 0.64-0.82, reported with the Table 3 experiments, read-out: IC50 antiproliferative, SF126), 730 nM; in [8] (Homo sapiens, U-87 MG, 72 h, three day treatment, read-out: CBD IC50, U87), 700 nM; in experiment [9] (Homo sapiens, MDA-MB-436, 72 h) it was 1500 nM. Also, the “Id-1 promoter luciferase activity” value in experiment [10] was “significant inhibition”.

Consider `CCCCCc1cc(O)c(C/C=C(\C)CCC=C(C)C)c(O)c1` [CBG, cannabigerol], for which the IC50 in experiment [11] (Homo sapiens, MDA-MB-231, 72 h) turned out to be 2300 nM; in experiment [7] (setting [12]), 1600 nM; in experiment [9] (Homo sapiens, MDA-MB-436, 72 h), 2100 nM.

As to `CCCCCc1cc(O)c2c(c1)OC(C)(C)c1ccc(C)cc1-2` [CBN, cannabinol], the IC50 in experiment [11] (Homo sapiens, MDA-MB-231, 72 h) stood at 1200 nM; in experiment [7] (setting [12]), 1200 nM; in [9] (Homo sapiens, MDA-MB-436, 72 h) it was 2600 nM. The “inhibition of Id-1 protein” value in [1] is recorded as “partially inhibit”.

Take `CCCCCCC(C)(C)c1ccc([C@@H]2C[C@H](O)CC[C@H]2CCCO)c(O)c1` [CP 55,940]: the IC50 was 2500 nM in [11] (setting [13]), 3300 nM in experiment [7] (setting [14]) and 1300 nM in experiment [9] (setting [13]). For the same compound, the “inhibition of Id-1 protein” value was “partially inhibit; also recorded: inhibited Id-1 expression” in [1] and “small inhibition” in [1] (940).

For the compound `Cc1c(C(=O)c2cccc3ccccc23)c2cccc3c2n1[C@H](CN1CCOCC1)CO3` [WIN 55,212-2], the 50% inhibitory concentration (IC50) came out at 1700 nM in experiment [11] (setting [13]); 1100 nM in experiment [6] (seven day treatment, read-out: IC50 antiproliferative, U251); 840 nM in experiment [7] (seven day treatment, 95% confidence limits, read-out: IC50 antiproliferative, SF126); 1300 nM in experiment [7] (setting [14]); 770 nM in experiment [8] (seven day treatment, read-out: IC50 antiproliferative, U87); 2400 nM in experiment [9] (setting [13]). The “invasion of MDA-MB231 cells” value in experiment [4] is “significantly reduced”.

Broadly, the IC50 is the concentration that inhibits the measured activity by half.

The values are drawn from US11344527B2, “Methods and compositions for treating cancer” (Sutter West Bay Hospitals, priority 2007, dated 2022).
